Data: patent US12617818B2, “Compositions and methods for modulating myosin subfragment-2 coiled coil stability and methods for using them” (UNIVERSITY OF NORTH TEXAS, priority 2020, dated 2026)

Target: T1, smooth muscle myosin S2 peptide (MYH11) (Homo sapiens, UniProt P35749)
T1 construct: A 21 residue peptide of the S2 region of MYH11 was matched to the previously synthesized S2 peptide; host or cells: chemical synthesis
Test: FRET of smooth muscle myosin S2 peptide dimer with anti-S2 peptides
Assay type: binding
Details: Smooth peptide with Stabilizer
Description: Human smooth muscle myosin heavy chain (MYH11) is a part of the non-striated muscle. This gene can be found within esophagus, endometrium, duodenum, etc. A 21 residue peptide of the S2 region of MYH11 was matched to the previously synthesized S2 peptide of cardiac isoform and chemically synthesized 926-946. Generated amino acid sequence used is as follow: • Smooth: NH2-[…]—COOH (SEQ ID NO:11)
Resonance energy probes (donor and acceptor) were covalently attached to synthetic myosin S2 peptides of cardiac muscle, E930del cardiac muscle, E924K cardiac muscle, smooth muscle, and skeletal muscle (Aboonasrshiraz, N., 2020).
Acceptor probe was conjugated to muscle myosin S2 peptides at N-terminus. Muscle myosin S2 peptides were dissolved in 20 mM HEPES buffer at pH 8.0. And FITC was dissolved in few drops of N, N dimethyl formamide. Lastly, FITC and muscle myosin S2 peptide was reacted together in 1 to 1 molar ratio and was let to react for 120 minutes at room temperature. […]
In FRET assay, Fluorescein Isothiocyanate (FITC) functioned as fluorescent acceptor probe and Terbium Diethylene Triamine Pentaacetic Acid-Cytosine (Lanthanide-DTPA-Cytosine) functioned as donor probe. […] Lifetime of donor probe was measured in milliseconds.
The specificity of peptides were later tested on the myosin S2 of the smooth muscle (MYH11). […] Calculated separation distance in presence of the stabilizer peptide was 3.34 nm.

T1 sequence (P35749 926-946): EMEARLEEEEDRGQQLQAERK

TD (donor lifetime without acceptor): 1.73E−03
Structure (SMILES): C[C@H](NC(=O)[C@H](CCCCN)NC(=O)[C@H](Cc1ccccc1)NC(=O)[C@H](CCCCN)NC(=O)[C@H](CCCCN)NC(=O)[C@H](CCCCN)NC(=O)[C@H](CCCCN)NC(=O)[C@H](CCCCN)NC(=O)[C@H](CCCCN)NC(=O)[C@H](CCCCN)NC(=O)[C@@H](N)CCCCN)C(=O)N[C@@H](CCCCN)C(=O)N[C@@H](CCCCN)C(=O)N[C@@H](CCCCN)C(=O)N[C@@H](CCCCN)C(=O)N[C@@H](CCCCN)C(=O)N[C@@H](CCCCN)C(=O)O [Stabilizer]
